This note sets out measurements from ChEMBL document CHEMBL1152667, “Synthesis and radiopharmacological investigation of 3-[4'-[(18)F]fluorobenzylidene]indolin-2-one as possible tyrosine kinase inhibitor” (Bioorg Med Chem, 2009).

One data set concerns Harderian gland. Nature of the data set: Biodistribution in Wistar rat harderian gland at 1.7 MBq, iv administered as single dose measured after 5 mins post-injection by gamma counting. The class given is ADME, organism-based. Conditions: in vivo.
A short description of data set [1]: Ratio of drug level in brown adipose tissue to blood in Wistar rat at 1.7 MBq, iv administered as single dose measured after 60 mins post-injection. It counts as ADME, organism-based.
Data set [2] in a line: Ratio of drug level in pancreas to blood in Wistar rat at 1.7 MBq, iv administered as single dose measured after 60 mins post-injection. It counts as ADME, organism-based.
Data set [3] is described as follows: Octanol-phosphate buffer distribution coefficient, log D at pH 7.4 by shake-flask method. The class given is physicochemical.
The subject of data set [4] is Thymus. Kind of data set: Biodistribution in Wistar rat thymus at 1.7 MBq, iv administered as single dose measured after 60 mins post-injection by gamma counting. It counts as ADME, organism-based. The note with it: in vivo, 1 h.
Data set [5] is described as follows: Ratio of drug level in harderian gland to blood in Wistar rat at 1.7 MBq, iv administered as single dose measured after 60 mins post-injection. The class given is ADME, organism-based.
The test system of data set [6] is Femur. Kind of data set: Biodistribution in Wistar rat femur assessed as standard uptake value at 1.7 MBq, iv administered as single dose measured after 10 mins post-injection by gamma counting. The class given is ADME, organism-based. Conditions: in vivo.
In another data set the test system is Brain. Nature of the data set: Biodistribution in Wistar rat brain assessed as standard uptake value at 1.7 MBq, iv administered as single dose measured after 30 mins post-injection by gamma counting. It counts as ADME, organism-based. Conditions: in vivo, 0.5 h.
A further data set deals with Blood. Nature of the data set: Biodistribution in Wistar rat blood assessed as standard uptake value at 1.7 MBq, iv administered as single dose measured after 1 min post-injection by gamma counting. The class given is ADME, organism-based. The note with it: in vivo.
The nature of data set [7]: Biodistribution in Wistar rat brown adipose tissue assessed as standard uptake value at 1.7 MBq, iv administered as single dose measured after 1 min post-injection by gamma counting. The class given is ADME, organism-based. The note with it: in vivo.
For the next data set, the system named is Adrenal gland. Kind of data set: Biodistribution in Wistar rat adrenal gland assessed as standard uptake value at 1.7 MBq, iv administered as single dose measured after 1 min post-injection by gamma counting. It counts as ADME, organism-based. The note with it: in vivo.
For a further data set, the system named is Lung. Kind of data set: Biodistribution in Wistar rat lung assessed as standard uptake value at 1.7 MBq, iv administered as single dose measured after 1 min post-injection by gamma counting. It counts as ADME, organism-based. Conditions: in vivo.
Data set [8] deals with Femur. Nature of the data set: Biodistribution in Wistar rat femur assessed as standard uptake value at 1.7 MBq, iv administered as single dose measured after 1 min post-injection by gamma counting. The class given is ADME, organism-based. The note with it: in vivo.
Data set [9] is described as follows: Biodistribution in Wistar rat thyroid gland assessed as standard uptake value at 1.7 MBq, iv administered as single dose measured after 60 mins post-injection by gamma counting. It counts as ADME, organism-based. Conditions: in vivo, 1 h.
Data set [10] deals with Femur. Kind of data set: Biodistribution in Wistar rat femur assessed as standard uptake value at 1.7 MBq, iv administered as single dose measured after 60 mins post-injection by gamma counting. The class given is ADME, organism-based. Conditions: in vivo, 1 h.
In a further data set the test system is Heart. Nature of the data set: Biodistribution in Wistar rat heart assessed as standard uptake value at 1.7 MBq, iv administered as single dose measured after 5 mins post-injection by gamma counting. It counts as ADME, organism-based. The note with it: in vivo.
The subject of a further data set is Pancreas. Kind of data set: Biodistribution in Wistar rat pancreas at 1.7 MBq, iv administered as single dose measured after 1 min post-injection by gamma counting. The note with it: in vivo. The class given is ADME, organism-based.
The subject of the next data set is Muscle tissue. Nature of the data set: Biodistribution in Wistar rat muscle assessed as standard uptake value at 1.7 MBq, iv administered as single dose measured after 10 mins post-injection by gamma counting. The class given is ADME, organism-based. Conditions: in vivo.
In data set [11] the test system is Thymus. Kind of data set: Biodistribution in Wistar rat thymus assessed as standard uptake value at 1.7 MBq, iv administered as single dose measured after 10 mins post-injection by gamma counting. Conditions: in vivo. It counts as ADME, organism-based.

On to `O=C1Nc2ccccc2/C1=C/c1ccc([18F])cc1`, for which the Drug uptake came to 0.34 %ID with Harderian gland, 0.05 %ID in the data set with Thymus [4] and 0.56 %ID in the data set with Pancreas. Further, the Kp (as a rule, the ratio of the level in a tissue or fluid to that in plasma or blood) at 1 h in data set [1] amounted to 4.3; in data set [2], 2.1; in data set [5], 6.8. Also, in [3], the logD – broadly, lipophilicity at a set pH, counting ionised and neutral species – was 3.39. The SUV in the data set with Femur [6] came out at 0.51%; in the data set with Brain it was 0.41%; in the data set with Blood, 0.83%; in data set [7], 1.42%; in the data set with Adrenal gland it was 4.95%; in the data set with Lung it was 4.26%. In addition, the SUV came out at 0.89% in the data set on Femur [8]; 0.16% in data set [9]; 0.19% in the data set with Femur [10]; 1.33% in the data set on Heart; 0.69% in the data set on Muscle tissue; 0.53% with Thymus [11].
